Assay [1] deals with von Hippel-Lindau disease tumor suppressor/SWI/SNF-related matrix-associated actin-dependent regulator of chromatin subfamily A member 2 (Homo sapiens, UniProt P51531+P40337). The assay is described as follows: PROTAC activity at SMARCA2/VHL1 in human HeLa cells assessed as protein degradation by Nano-Glo HiBiT lytic detection assay. Type of assay: cell-based. In general terms: With HiBiT, luminescence reflects the tagged protein that the partner subunit can reach.

The target of assay [2] is von Hippel-Lindau disease tumor suppressor/SWI/SNF-related matrix-associated actin-dependent regulator of chromatin subfamily A member 4 (Homo sapiens, UniProt P51532+P40337). The assay is described as follows: PROTAC activity at SMARCA4/VHL1 in human HeLa cells assessed as protein degradation by Nano-Glo HiBiT lytic detection assay. Type of assay: cell-based.

By DC50 is commonly meant the concentration giving 50% degradation.

von Hippel-Lindau disease tumor suppressor/SWI/SNF-related matrix-associated actin-dependent regulator of chromatin subfamily A member 2, sequence (P51531 whole entry): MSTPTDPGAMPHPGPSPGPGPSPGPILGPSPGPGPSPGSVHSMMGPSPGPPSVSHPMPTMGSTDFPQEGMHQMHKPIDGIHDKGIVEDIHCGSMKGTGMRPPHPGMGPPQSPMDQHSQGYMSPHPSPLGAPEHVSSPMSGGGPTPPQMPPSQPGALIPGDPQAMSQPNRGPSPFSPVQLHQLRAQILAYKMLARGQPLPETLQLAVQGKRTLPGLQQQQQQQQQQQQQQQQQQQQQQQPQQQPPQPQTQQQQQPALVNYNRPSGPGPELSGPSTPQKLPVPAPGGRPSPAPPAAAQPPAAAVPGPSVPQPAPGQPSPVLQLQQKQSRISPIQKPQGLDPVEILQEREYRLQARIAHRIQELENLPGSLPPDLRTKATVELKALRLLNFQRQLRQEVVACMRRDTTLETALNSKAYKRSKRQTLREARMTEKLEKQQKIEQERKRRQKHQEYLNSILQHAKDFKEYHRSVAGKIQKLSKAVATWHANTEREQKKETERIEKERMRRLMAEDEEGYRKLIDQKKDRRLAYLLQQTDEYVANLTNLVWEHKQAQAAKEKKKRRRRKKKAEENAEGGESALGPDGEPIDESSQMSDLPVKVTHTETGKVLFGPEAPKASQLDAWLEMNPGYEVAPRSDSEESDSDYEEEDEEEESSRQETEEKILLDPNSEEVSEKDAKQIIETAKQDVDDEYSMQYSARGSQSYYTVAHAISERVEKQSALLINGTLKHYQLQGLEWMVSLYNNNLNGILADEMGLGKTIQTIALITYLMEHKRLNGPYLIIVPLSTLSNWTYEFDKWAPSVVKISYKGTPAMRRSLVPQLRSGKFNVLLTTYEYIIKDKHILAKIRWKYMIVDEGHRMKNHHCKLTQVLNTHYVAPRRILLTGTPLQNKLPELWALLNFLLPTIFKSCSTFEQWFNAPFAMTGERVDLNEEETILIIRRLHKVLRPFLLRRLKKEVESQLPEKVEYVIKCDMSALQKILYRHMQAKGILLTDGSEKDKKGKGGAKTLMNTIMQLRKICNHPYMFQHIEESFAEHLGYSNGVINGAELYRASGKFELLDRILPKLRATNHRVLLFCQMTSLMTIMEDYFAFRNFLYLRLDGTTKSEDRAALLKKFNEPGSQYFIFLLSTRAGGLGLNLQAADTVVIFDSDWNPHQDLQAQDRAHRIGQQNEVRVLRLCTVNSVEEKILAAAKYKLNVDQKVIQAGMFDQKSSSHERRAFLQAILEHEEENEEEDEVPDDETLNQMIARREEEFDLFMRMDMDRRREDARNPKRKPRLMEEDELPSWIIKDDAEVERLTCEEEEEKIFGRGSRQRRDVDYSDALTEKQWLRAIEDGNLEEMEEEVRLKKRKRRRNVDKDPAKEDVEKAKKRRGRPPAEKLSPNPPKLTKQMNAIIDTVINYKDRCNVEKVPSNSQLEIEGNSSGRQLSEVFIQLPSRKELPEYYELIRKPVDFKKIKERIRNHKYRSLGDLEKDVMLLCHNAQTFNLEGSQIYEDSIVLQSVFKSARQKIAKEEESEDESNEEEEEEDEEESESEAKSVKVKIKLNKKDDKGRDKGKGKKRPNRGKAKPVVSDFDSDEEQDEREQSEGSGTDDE
von Hippel-Lindau disease tumor suppressor/SWI/SNF-related matrix-associated actin-dependent regulator of chromatin subfamily A member 2, sequence (P40337 whole entry): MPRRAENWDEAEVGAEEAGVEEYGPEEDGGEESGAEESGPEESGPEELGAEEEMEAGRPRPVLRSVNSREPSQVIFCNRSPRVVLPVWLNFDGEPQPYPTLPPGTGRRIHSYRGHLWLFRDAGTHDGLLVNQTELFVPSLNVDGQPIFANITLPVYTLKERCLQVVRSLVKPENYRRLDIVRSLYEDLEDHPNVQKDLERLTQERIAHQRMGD
von Hippel-Lindau disease tumor suppressor/SWI/SNF-related matrix-associated actin-dependent regulator of chromatin subfamily A member 4, sequence (P51532 whole entry): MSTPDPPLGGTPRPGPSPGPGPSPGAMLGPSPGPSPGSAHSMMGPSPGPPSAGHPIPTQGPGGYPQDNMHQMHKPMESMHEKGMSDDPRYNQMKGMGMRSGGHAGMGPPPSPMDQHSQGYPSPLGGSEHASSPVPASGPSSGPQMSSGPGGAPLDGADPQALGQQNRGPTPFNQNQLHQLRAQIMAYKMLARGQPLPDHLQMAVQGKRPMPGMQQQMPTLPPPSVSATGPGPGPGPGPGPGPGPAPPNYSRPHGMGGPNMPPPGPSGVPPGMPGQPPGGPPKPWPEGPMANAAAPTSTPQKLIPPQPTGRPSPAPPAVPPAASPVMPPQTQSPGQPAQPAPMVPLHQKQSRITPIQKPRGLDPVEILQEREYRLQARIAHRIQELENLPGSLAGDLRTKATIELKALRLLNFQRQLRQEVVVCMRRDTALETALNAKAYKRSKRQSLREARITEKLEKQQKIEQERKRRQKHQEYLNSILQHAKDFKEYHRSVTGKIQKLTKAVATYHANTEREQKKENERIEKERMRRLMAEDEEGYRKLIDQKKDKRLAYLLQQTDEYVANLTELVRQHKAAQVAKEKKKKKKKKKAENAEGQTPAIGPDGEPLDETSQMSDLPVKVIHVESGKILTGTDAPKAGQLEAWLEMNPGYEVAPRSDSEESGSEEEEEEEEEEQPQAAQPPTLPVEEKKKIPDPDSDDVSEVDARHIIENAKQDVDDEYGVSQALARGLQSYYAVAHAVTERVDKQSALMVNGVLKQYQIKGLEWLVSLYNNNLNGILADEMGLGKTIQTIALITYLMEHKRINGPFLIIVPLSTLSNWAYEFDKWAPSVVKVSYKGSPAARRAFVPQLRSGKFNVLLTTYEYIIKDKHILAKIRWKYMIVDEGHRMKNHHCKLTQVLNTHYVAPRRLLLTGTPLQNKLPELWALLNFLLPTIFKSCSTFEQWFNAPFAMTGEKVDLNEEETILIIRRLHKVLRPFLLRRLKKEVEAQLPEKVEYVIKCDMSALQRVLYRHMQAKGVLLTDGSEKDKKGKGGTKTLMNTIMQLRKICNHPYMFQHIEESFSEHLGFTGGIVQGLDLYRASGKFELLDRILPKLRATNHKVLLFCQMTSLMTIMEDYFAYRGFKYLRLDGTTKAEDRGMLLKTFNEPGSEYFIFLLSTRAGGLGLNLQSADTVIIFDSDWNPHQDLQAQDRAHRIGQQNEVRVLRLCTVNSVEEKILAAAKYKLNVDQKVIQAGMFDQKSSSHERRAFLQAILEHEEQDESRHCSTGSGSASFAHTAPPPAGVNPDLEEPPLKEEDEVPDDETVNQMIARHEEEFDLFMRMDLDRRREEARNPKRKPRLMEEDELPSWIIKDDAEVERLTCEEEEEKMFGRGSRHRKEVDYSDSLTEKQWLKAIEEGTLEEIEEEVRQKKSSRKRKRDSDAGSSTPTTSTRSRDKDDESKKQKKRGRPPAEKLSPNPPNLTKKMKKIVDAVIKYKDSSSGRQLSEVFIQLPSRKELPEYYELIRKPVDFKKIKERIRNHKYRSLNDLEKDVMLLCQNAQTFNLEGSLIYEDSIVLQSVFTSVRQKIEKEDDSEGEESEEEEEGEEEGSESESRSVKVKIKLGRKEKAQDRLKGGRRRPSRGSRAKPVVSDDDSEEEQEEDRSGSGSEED
von Hippel-Lindau disease tumor suppressor/SWI/SNF-related matrix-associated actin-dependent regulator of chromatin subfamily A member 4, sequence (P40337 whole entry): as the sequence (P40337 whole entry) above

As to `Cc1ncoc1-c1ccc([C@H](CN2CCOCC2)NC(=O)[C@@H]2C[C@@H](O)CN2C(=O)[C@@H](n2cc([C@H]3CC[C@H](CN4CCC(c5ccc6c(c5)-n5c(nc(=O)c7c(Cl)cccc75)C65CCCCC5)CC4)CC3)nn2)C(C)(C)C)cc1`, the results for the DC50 in assay [1] and in assay [2] were 1 nM and more than 1000 nM, respectively.
For `Cc1ncsc1-c1ccc([C@H](C)NC(=O)[C@@H]2C[C@@H](O)CN2C(=O)[C@@H](n2cc([C@H]3CC[C@H](CN4CCC(c5ccc6c(c5)C5(CCCCC5)c5nc(=O)c7c(Br)cccc7n5-6)CC4)CC3)nn2)C(C)(C)C)cc1` the same measures were 0.15 nM and 2 nM.
On the same counts, the results for `Cc1ncsc1-c1ccc([C@H](C)NC(=O)[C@@H]2C[C@@H](O)CN2C(=O)[C@@H](n2cc([C@H]3CC[C@H](CN4CCC(c5ccc6c(c5)C5(CCCCC5)c5nc(=O)c7c(Cl)cccc7n5-6)CC4)CC3)nn2)C(C)(C)C)cc1` are 0.29 nM and 3 nM.
`Cc1ncsc1-c1ccc([C@H](C)NC(=O)[C@@H]2C[C@@H](O)CN2C(=O)[C@@H](NC(=O)[C@H]2CC[C@H](CN3CCC(c4ccc5c(c4)C4(CCCCC4)c4nc(=O)c6c(Cl)cccc6n4-5)CC3)CC2)C(C)(C)C)cc1`: the DC50 in assay [1] worked out at 6.3 nM.
Take `Cc1ncsc1-c1ccc([C@H](CN2CCN(C)CC2)NC(=O)[C@@H]2C[C@@H](O)CN2C(=O)[C@@H](n2cc([C@H]3CC[C@H](CN4CCC(c5ccc6c(c5)-n5c(nc(=O)c7c(Cl)cccc75)C65CCCCC5)CC4)CC3)nn2)C(C)(C)C)cc1`: the DC50 amounted to 1 nM in assay [1] and 62 nM in assay [2].
On to `Cc1ncsc1-c1ccc([C@H](CN2CCS(=O)(=O)CC2)NC(=O)[C@@H]2C[C@@H](O)CN2C(=O)[C@@H](n2cc([C@H]3CC[C@H](CN4CCC(c5ccc6c(c5)-n5c(nc(=O)c7c(Cl)cccc75)C65CCCCC5)CC4)CC3)nn2)C(C)(C)C)cc1`, for which the results for the DC50 in assay [1] and in assay [2] were 5 nM and more than 1000 nM, respectively.
On to `COCCOCCOCCOC[C@H](NC(=O)[C@@H]1C[C@@H](O)CN1C(=O)[C@@H](n1cc([C@H]2CC[C@H](CN3CCC(c4ccc5c(c4)-n4c(nc(=O)c6c(Cl)cccc64)C54CCCCC4)CC3)CC2)nn1)C(C)(C)C)c1ccc(-c2scnc2C)cc1`, for which the DC50 in assay [1] was 2 nM; in assay [2], more than 1000 nM.
For `Cc1ncsc1-c1ccc([C@H](C)NC(=O)[C@@H]2C[C@@H](O)CN2C(=O)[C@@H](n2cc([C@H]3CC[C@H](CN4CCC(c5ccc6c(c5)-n5c(nc(=O)c7c(Cl)cccc75)C65CCCCC5)CC4)CC3)nn2)C(C)(C)C)cc1` the same measures were 0.3 nM and 115 nM.
In the case of `Cc1nc(C)c(-c2ccc([C@H](CN3CCOCC3)NC(=O)[C@@H]3C[C@@H](O)CN3C(=O)[C@@H](n3cc([C@H]4CC[C@H](CN5CCC(c6ccc7c(c6)-n6c(nc(=O)c8c(Cl)cccc86)C76CCCCC6)CC5)CC4)nn3)C(C)(C)C)cc2)s1`, the DC50 in assay [1] is 1 nM; in assay [2] it was more than 1000 nM.
For `Cc1ncsc1-c1ccc([C@H](CN2CCOCC2)NC(=O)[C@@H]2C[C@@H](O)CN2C(=O)[C@@H](n2cc([C@H]3CC[C@H](CN4CCC(c5ccc6c(c5)-n5c(nc(=O)c7c(Cl)cccc75)C65CCCCC5)CC4)CC3)nn2)C(C)(C)O)cc1` the same measures were 1 nM and more than 1000 nM.
On the same counts, the results for `Cc1ncsc1-c1ccc([C@H](C)NC(=O)[C@@H]2C[C@@H](O)CN2C(=O)[C@@H](n2cc([C@H]3CC[C@H](CN4CCC(c5ccc6c(c5)-n5c(nc(=O)c7c(Br)cccc75)C65CCCCC5)CC4)CC3)nn2)C(C)(C)C)cc1` are 0.24 nM and 22 nM.
On the same counts, the results for `Cc1ncsc1-c1ccc([C@H](CN2CCC(F)(F)CC2)NC(=O)[C@@H]2C[C@@H](O)CN2C(=O)[C@@H](n2cc([C@H]3CC[C@H](CN4CCC(c5ccc6c(c5)-n5c(nc(=O)c7c(Cl)cccc75)C65CCCCC5)CC4)CC3)nn2)C(C)(C)C)cc1` are 2 nM and more than 1000 nM.
Take `Cc1ncsc1-c1ccc([C@H](C)NC(=O)[C@@H]2C[C@@H](O)CN2C(=O)[C@@H](NC(=O)[C@H]2CC[C@H](CN3CCC(c4ccc5c(c4)-n4c(nc(=O)c6c(Cl)cccc64)C54CCCCC4)CC3)CC2)C(C)(C)C)cc1`: in assay [1], the DC50 worked out at 8 nM.
